In PubChem BioAssay AID2060627 (Molecular Pharmacology Branch, DTP, NCI, 2025):

tested on: 156681-154-R-J1-PDC complex spheroid viability; experiment: Anticancer human tumor 156681-154-R-J1-PDC patient-derived melanoma cell line growth inhibition [CLK]; settings: curve of first compound; second compound 0.0316 µM
How it was run: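 Multi-cell-type spheroids combined patient-derived tumor cells with HUVEC endothelial cells and human mesenchymal stem cells. Paired agents were dosed in half-log steps down from about clinical Cmax, or from 10 microM where Cmax was unknown.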
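Further: spheroids exposed to the agents for seven days.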
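Wherever viability, T/C is given: 100% = DMSO vehicle control viability.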

SMILES	IC50
Nc1ccccc1NC(=O)c1ccc(CNC(=O)OCc2cccnc2)cc1 + CN1CCN(c2cc(C(=O)Nc3cc4cc(-c5cnn(C)c5)ccc4cn3)ccn2)CC1	563 nM
O=c1[nH]cc(F)c(=O)[nH]1 + CNC(=O)c1ccc(Nc2nc(OC3CCCC3)c3c(-c4ccc5nc(C)oc5c4)c[nH]c3n2)c(OC)c1	7950 nM
C=CC(=O)N1CCN(c2nc(=O)n(-c3c(C)ccnc3C(C)C)c3nc(-c4c(O)cccc4F)c(F)cc23)C(C)C1 (configuration not stated) + CNC(=O)c1ccc(Nc2nc(OC3CCCC3)c3c(-c4ccc5nc(C)oc5c4)c[nH]c3n2)c(OC)c1	> 10000 nM

More lines, in order of falling IC50, values ahead:

IC50	SMILES
1070 nM	COC1C=CCC(C)C(C)S(=O)(=O)NC(=O)c2ccc3c(c2)N(CC2CCC21)CC1(CCCc2cc(Cl)ccc21)CO3 (configuration not stated) + CNC(=O)c1ccc(Nc2nc(OC3CCCC3)c3c(-c4ccc5nc(C)oc5c4)c[nH]c3n2)c(OC)c1
572 nM	Nc1ccccc1NC(=O)c1ccc(CNC(=O)OCc2cccnc2)cc1 + CNC(=O)c1ccc(Nc2nc(OC3CCCC3)c3c(-c4ccc5nc(C)oc5c4)c[nH]c3n2)c(OC)c1

same assay, conditions: curve of first compound; second compound 0.1 µM

SMILES	IC50
Nc1ccccc1NC(=O)c1ccc(CNC(=O)OCc2cccnc2)cc1 + CN1CCN(c2cc(C(=O)Nc3cc4cc(-c5cnn(C)c5)ccc4cn3)ccn2)CC1	505 nM
O=c1[nH]cc(F)c(=O)[nH]1 + CNC(=O)c1ccc(Nc2nc(OC3CCCC3)c3c(-c4ccc5nc(C)oc5c4)c[nH]c3n2)c(OC)c1	5500 nM
C=CC(=O)N1CCN(c2nc(=O)n(-c3c(C)ccnc3C(C)C)c3nc(-c4c(O)cccc4F)c(F)cc23)C(C)C1 (configuration not stated) + CNC(=O)c1ccc(Nc2nc(OC3CCCC3)c3c(-c4ccc5nc(C)oc5c4)c[nH]c3n2)c(OC)c1	> 10000 nM

The remaining lines, values ahead:

IC50	SMILES
327 nM	COC1C=CCC(C)C(C)S(=O)(=O)NC(=O)c2ccc3c(c2)N(CC2CCC21)CC1(CCCc2cc(Cl)ccc21)CO3 (configuration not stated) + CNC(=O)c1ccc(Nc2nc(OC3CCCC3)c3c(-c4ccc5nc(C)oc5c4)c[nH]c3n2)c(OC)c1
293 nM	Nc1ccccc1NC(=O)c1ccc(CNC(=O)OCc2cccnc2)cc1 + CNC(=O)c1ccc(Nc2nc(OC3CCCC3)c3c(-c4ccc5nc(C)oc5c4)c[nH]c3n2)c(OC)c1

same assay, conditions: curve of first compound; second compound 0.316 µM

SMILES	IC50
Nc1ccccc1NC(=O)c1ccc(CNC(=O)OCc2cccnc2)cc1 + CN1CCN(c2cc(C(=O)Nc3cc4cc(-c5cnn(C)c5)ccc4cn3)ccn2)CC1	< 31.6 nM
O=c1[nH]cc(F)c(=O)[nH]1 + CNC(=O)c1ccc(Nc2nc(OC3CCCC3)c3c(-c4ccc5nc(C)oc5c4)c[nH]c3n2)c(OC)c1	3420 nM
C=CC(=O)N1CCN(c2nc(=O)n(-c3c(C)ccnc3C(C)C)c3nc(-c4c(O)cccc4F)c(F)cc23)C(C)C1 (configuration not stated) + CNC(=O)c1ccc(Nc2nc(OC3CCCC3)c3c(-c4ccc5nc(C)oc5c4)c[nH]c3n2)c(OC)c1	5090 nM

Further lines, results first:

IC50	SMILES
88.5 nM	COC1C=CCC(C)C(C)S(=O)(=O)NC(=O)c2ccc3c(c2)N(CC2CCC21)CC1(CCCc2cc(Cl)ccc21)CO3 (configuration not stated) + CNC(=O)c1ccc(Nc2nc(OC3CCCC3)c3c(-c4ccc5nc(C)oc5c4)c[nH]c3n2)c(OC)c1
337 nM	Nc1ccccc1NC(=O)c1ccc(CNC(=O)OCc2cccnc2)cc1 + CNC(=O)c1ccc(Nc2nc(OC3CCCC3)c3c(-c4ccc5nc(C)oc5c4)c[nH]c3n2)c(OC)c1

same assay, conditions: curve of first compound; second compound 1 µM

SMILES	IC50
Nc1ccccc1NC(=O)c1ccc(CNC(=O)OCc2cccnc2)cc1 + CN1CCN(c2cc(C(=O)Nc3cc4cc(-c5cnn(C)c5)ccc4cn3)ccn2)CC1	< 31.6 nM
O=c1[nH]cc(F)c(=O)[nH]1 + CNC(=O)c1ccc(Nc2nc(OC3CCCC3)c3c(-c4ccc5nc(C)oc5c4)c[nH]c3n2)c(OC)c1	4120 nM
C=CC(=O)N1CCN(c2nc(=O)n(-c3c(C)ccnc3C(C)C)c3nc(-c4c(O)cccc4F)c(F)cc23)C(C)C1 (configuration not stated) + CNC(=O)c1ccc(Nc2nc(OC3CCCC3)c3c(-c4ccc5nc(C)oc5c4)c[nH]c3n2)c(OC)c1	< 31.6 nM

Continued, values first:

IC50	SMILES
< 31.6 nM	COC1C=CCC(C)C(C)S(=O)(=O)NC(=O)c2ccc3c(c2)N(CC2CCC21)CC1(CCCc2cc(Cl)ccc21)CO3 (configuration not stated) + CNC(=O)c1ccc(Nc2nc(OC3CCCC3)c3c(-c4ccc5nc(C)oc5c4)c[nH]c3n2)c(OC)c1
141 nM	Nc1ccccc1NC(=O)c1ccc(CNC(=O)OCc2cccnc2)cc1 + CNC(=O)c1ccc(Nc2nc(OC3CCCC3)c3c(-c4ccc5nc(C)oc5c4)c[nH]c3n2)c(OC)c1

same assay, conditions: curve of first compound; second compound 3.16 µM

SMILES	IC50
Nc1ccccc1NC(=O)c1ccc(CNC(=O)OCc2cccnc2)cc1 + CN1CCN(c2cc(C(=O)Nc3cc4cc(-c5cnn(C)c5)ccc4cn3)ccn2)CC1	< 31.6 nM
O=c1[nH]cc(F)c(=O)[nH]1 + CNC(=O)c1ccc(Nc2nc(OC3CCCC3)c3c(-c4ccc5nc(C)oc5c4)c[nH]c3n2)c(OC)c1	< 31.6 nM
C=CC(=O)N1CCN(c2nc(=O)n(-c3c(C)ccnc3C(C)C)c3nc(-c4c(O)cccc4F)c(F)cc23)C(C)C1 (configuration not stated) + CNC(=O)c1ccc(Nc2nc(OC3CCCC3)c3c(-c4ccc5nc(C)oc5c4)c[nH]c3n2)c(OC)c1	< 31.6 nM

Results, then the molecule that gave them:

IC50	SMILES
< 31.6 nM	COC1C=CCC(C)C(C)S(=O)(=O)NC(=O)c2ccc3c(c2)N(CC2CCC21)CC1(CCCc2cc(Cl)ccc21)CO3 (configuration not stated) + CNC(=O)c1ccc(Nc2nc(OC3CCCC3)c3c(-c4ccc5nc(C)oc5c4)c[nH]c3n2)c(OC)c1
67.6 nM	Nc1ccccc1NC(=O)c1ccc(CNC(=O)OCc2cccnc2)cc1 + CNC(=O)c1ccc(Nc2nc(OC3CCCC3)c3c(-c4ccc5nc(C)oc5c4)c[nH]c3n2)c(OC)c1

same assay, conditions: curve of first compound; second compound 10 µM

SMILES	IC50
Nc1ccccc1NC(=O)c1ccc(CNC(=O)OCc2cccnc2)cc1 + CN1CCN(c2cc(C(=O)Nc3cc4cc(-c5cnn(C)c5)ccc4cn3)ccn2)CC1	< 31.6 nM
O=c1[nH]cc(F)c(=O)[nH]1 + CNC(=O)c1ccc(Nc2nc(OC3CCCC3)c3c(-c4ccc5nc(C)oc5c4)c[nH]c3n2)c(OC)c1	< 31.6 nM
C=CC(=O)N1CCN(c2nc(=O)n(-c3c(C)ccnc3C(C)C)c3nc(-c4c(O)cccc4F)c(F)cc23)C(C)C1 (configuration not stated) + CNC(=O)c1ccc(Nc2nc(OC3CCCC3)c3c(-c4ccc5nc(C)oc5c4)c[nH]c3n2)c(OC)c1	< 31.6 nM

The remaining lines, values ahead:

IC50	SMILES
< 31.6 nM	COC1C=CCC(C)C(C)S(=O)(=O)NC(=O)c2ccc3c(c2)N(CC2CCC21)CC1(CCCc2cc(Cl)ccc21)CO3 (configuration not stated) + CNC(=O)c1ccc(Nc2nc(OC3CCCC3)c3c(-c4ccc5nc(C)oc5c4)c[nH]c3n2)c(OC)c1
50.7 nM	Nc1ccccc1NC(=O)c1ccc(CNC(=O)OCc2cccnc2)cc1 + CNC(=O)c1ccc(Nc2nc(OC3CCCC3)c3c(-c4ccc5nc(C)oc5c4)c[nH]c3n2)c(OC)c1

same assay, conditions: second compound 0.0316 µM; first compound 0.0316 µM; stronger effect = lower value

SMILES	viability, T/C
COC1C=CCC(C)C(C)S(=O)(=O)NC(=O)c2ccc3c(c2)N(CC2CCC21)CC1(CCCc2cc(Cl)ccc21)CO3 (configuration not stated) + CNC(=O)c1ccc(Nc2nc(OC3CCCC3)c3c(-c4ccc5nc(C)oc5c4)c[nH]c3n2)c(OC)c1	96.3%
Nc1ccccc1NC(=O)c1ccc(CNC(=O)OCc2cccnc2)cc1 + CN1CCN(c2cc(C(=O)Nc3cc4cc(-c5cnn(C)c5)ccc4cn3)ccn2)CC1	104%
O=c1[nH]cc(F)c(=O)[nH]1 + CNC(=O)c1ccc(Nc2nc(OC3CCCC3)c3c(-c4ccc5nc(C)oc5c4)c[nH]c3n2)c(OC)c1	96.6%
C=CC(=O)N1CCN(c2nc(=O)n(-c3c(C)ccnc3C(C)C)c3nc(-c4c(O)cccc4F)c(F)cc23)C(C)C1 (configuration not stated) + CNC(=O)c1ccc(Nc2nc(OC3CCCC3)c3c(-c4ccc5nc(C)oc5c4)c[nH]c3n2)c(OC)c1	83.4%
Nc1ccccc1NC(=O)c1ccc(CNC(=O)OCc2cccnc2)cc1 + CNC(=O)c1ccc(Nc2nc(OC3CCCC3)c3c(-c4ccc5nc(C)oc5c4)c[nH]c3n2)c(OC)c1	115%

same assay, conditions: second compound 0.0316 µM; first compound 0.1 µM; stronger effect = lower value

SMILES	viability, T/C
COC1C=CCC(C)C(C)S(=O)(=O)NC(=O)c2ccc3c(c2)N(CC2CCC21)CC1(CCCc2cc(Cl)ccc21)CO3 (configuration not stated) + CNC(=O)c1ccc(Nc2nc(OC3CCCC3)c3c(-c4ccc5nc(C)oc5c4)c[nH]c3n2)c(OC)c1	93.1%
Nc1ccccc1NC(=O)c1ccc(CNC(=O)OCc2cccnc2)cc1 + CN1CCN(c2cc(C(=O)Nc3cc4cc(-c5cnn(C)c5)ccc4cn3)ccn2)CC1	86.9%
O=c1[nH]cc(F)c(=O)[nH]1 + CNC(=O)c1ccc(Nc2nc(OC3CCCC3)c3c(-c4ccc5nc(C)oc5c4)c[nH]c3n2)c(OC)c1	99%
C=CC(=O)N1CCN(c2nc(=O)n(-c3c(C)ccnc3C(C)C)c3nc(-c4c(O)cccc4F)c(F)cc23)C(C)C1 (configuration not stated) + CNC(=O)c1ccc(Nc2nc(OC3CCCC3)c3c(-c4ccc5nc(C)oc5c4)c[nH]c3n2)c(OC)c1	105%
Nc1ccccc1NC(=O)c1ccc(CNC(=O)OCc2cccnc2)cc1 + CNC(=O)c1ccc(Nc2nc(OC3CCCC3)c3c(-c4ccc5nc(C)oc5c4)c[nH]c3n2)c(OC)c1	91.2%

same assay, conditions: second compound 0.0316 µM; first compound 0.316 µM; stronger effect = lower value

SMILES	viability, T/C
COC1C=CCC(C)C(C)S(=O)(=O)NC(=O)c2ccc3c(c2)N(CC2CCC21)CC1(CCCc2cc(Cl)ccc21)CO3 (configuration not stated) + CNC(=O)c1ccc(Nc2nc(OC3CCCC3)c3c(-c4ccc5nc(C)oc5c4)c[nH]c3n2)c(OC)c1	84.3%
Nc1ccccc1NC(=O)c1ccc(CNC(=O)OCc2cccnc2)cc1 + CN1CCN(c2cc(C(=O)Nc3cc4cc(-c5cnn(C)c5)ccc4cn3)ccn2)CC1	69.7%
O=c1[nH]cc(F)c(=O)[nH]1 + CNC(=O)c1ccc(Nc2nc(OC3CCCC3)c3c(-c4ccc5nc(C)oc5c4)c[nH]c3n2)c(OC)c1	91.9%
C=CC(=O)N1CCN(c2nc(=O)n(-c3c(C)ccnc3C(C)C)c3nc(-c4c(O)cccc4F)c(F)cc23)C(C)C1 (configuration not stated) + CNC(=O)c1ccc(Nc2nc(OC3CCCC3)c3c(-c4ccc5nc(C)oc5c4)c[nH]c3n2)c(OC)c1	91.4%
Nc1ccccc1NC(=O)c1ccc(CNC(=O)OCc2cccnc2)cc1 + CNC(=O)c1ccc(Nc2nc(OC3CCCC3)c3c(-c4ccc5nc(C)oc5c4)c[nH]c3n2)c(OC)c1	64.9%

same assay, conditions: second compound 0.0316 µM; first compound 1 µM; stronger effect = lower value

SMILES	viability, T/C
COC1C=CCC(C)C(C)S(=O)(=O)NC(=O)c2ccc3c(c2)N(CC2CCC21)CC1(CCCc2cc(Cl)ccc21)CO3 (configuration not stated) + CNC(=O)c1ccc(Nc2nc(OC3CCCC3)c3c(-c4ccc5nc(C)oc5c4)c[nH]c3n2)c(OC)c1	54%
Nc1ccccc1NC(=O)c1ccc(CNC(=O)OCc2cccnc2)cc1 + CN1CCN(c2cc(C(=O)Nc3cc4cc(-c5cnn(C)c5)ccc4cn3)ccn2)CC1	33.3%
O=c1[nH]cc(F)c(=O)[nH]1 + CNC(=O)c1ccc(Nc2nc(OC3CCCC3)c3c(-c4ccc5nc(C)oc5c4)c[nH]c3n2)c(OC)c1	95.9%
C=CC(=O)N1CCN(c2nc(=O)n(-c3c(C)ccnc3C(C)C)c3nc(-c4c(O)cccc4F)c(F)cc23)C(C)C1 (configuration not stated) + CNC(=O)c1ccc(Nc2nc(OC3CCCC3)c3c(-c4ccc5nc(C)oc5c4)c[nH]c3n2)c(OC)c1	106%
Nc1ccccc1NC(=O)c1ccc(CNC(=O)OCc2cccnc2)cc1 + CNC(=O)c1ccc(Nc2nc(OC3CCCC3)c3c(-c4ccc5nc(C)oc5c4)c[nH]c3n2)c(OC)c1	42%

same assay, conditions: second compound 0.0316 µM; first compound 3.16 µM; stronger effect = lower value

SMILES	viability, T/C
COC1C=CCC(C)C(C)S(=O)(=O)NC(=O)c2ccc3c(c2)N(CC2CCC21)CC1(CCCc2cc(Cl)ccc21)CO3 (configuration not stated) + CNC(=O)c1ccc(Nc2nc(OC3CCCC3)c3c(-c4ccc5nc(C)oc5c4)c[nH]c3n2)c(OC)c1	9.3%
Nc1ccccc1NC(=O)c1ccc(CNC(=O)OCc2cccnc2)cc1 + CN1CCN(c2cc(C(=O)Nc3cc4cc(-c5cnn(C)c5)ccc4cn3)ccn2)CC1	5.05%
